How the values were obtained:
[1] = test system: E coli; test: Host tolerance to hydroxymethyl-3HP, relative OD after 24 hours; assay type: cell-based; conditions: 24 hours incubation at 30° C.
Method: (§1) FIG. 33(a) presents comparative tolerance data of potential host organisms to 3-hydroxymethyl 3-hydroxypropionic acid (HM3HP) where Km=K. marxianus, Sc=S. cerevisiae, Ec=E. coli (from Example 17). Within each grouping, the right bar represents Ec, the left bar represents Km, and the middle bar represents Sc.
(§2) Two eukaryotic strains, I. orientalis and S. cerevisiae, were tested for tolerance to the selected compounds at pH 3 and pH 5. The bacterial strains were grown at their individual optimal conditions, E coli and C. glutamicum at pH 8 and 30° C., and B. firmus and B. cohnii at pH 9 and 37° C. I. orientalis was grown in defined yeast media consisting of 5 g/L ammonium sulfate, 0.5 g/L magnesium sulfate heptahydrate, 3 g/L potassium phosphate monobasic, 10 g/L dextrose, 1 mL/L of 10% glycerol stock, 1 mL/L of 1000× trace. The 1000× trace stock solution contains 4 g/L ZnSO4.7H2O, 2 g/L FeSO4.7H2O, 1 g/L MnSO4.H2O, 0.2 g/L CuSO4.5H2O, and 0.8 mL/L H2SO4. S. cerevisiae was grown in buffered defined dextrose media consisting of 50 g/L dextrose, 5 g/L yeast extract, and 40 mL/L 25×DM salts. The 25×DM salt stock solution contains 125 g/L ammonium sulfate, 12.5 g/L magnesium sulfate heptahydrate, 75 g/L potassium phosphate monobasic, and 787.5 g/L water. The bacterial strains were grown in standard LB media consisting of 10 g/L bacto-tryptone, 5 g/L yeast extract, 10 g/L NaCl, and 20 g/L dextrose with addition of 20 g/L glucose.
(§3) In one embodiment, alpha substituted 3-hydroxypropionic acid is produced by the host organism. In a specific embodiment, alpha hydroxymethyl 3-hydroxypropionic acid is produced by the host organism. To evaluate host organisms, the protocol described above was used. The relative OD at the end of 24 hours incubation at 30° C. was compared for Kluyveromyces marxianus, S. cerevisiae, and E coli in the presence of different amounts of hydroxymethyl-3HP (FIG. 33(a)).

[2] = test system: Kluyveromyces marxianus; test: as above; assay type: cell-based; conditions: K. marxianus, 24 hours incubation at 30° C.
Method: as §1, §2, §3

[3] = test system: S. cerevisiae; test: as above; assay type: cell-based; conditions: 24 hours incubation at 30° C.
Method: as §1, §2, §3

[4] = Dehydration of HM3HP to HMA at different temperature and pH (NMR); assay type: physicochemical; conditions: overnight
Method: In the case of the microorganism producing alpha-substituted 3-hydroxymethyl acid, such as in Examples 9 and 21, this compound is dehydrated to alpha-substituted acrylic acid. In one embodiment, alpha-hydroxymethyl 3-hydroxypropionic acid (HM3HP) is dehydrated to alpha-hydroxymethyl acrylic acid (HMA). A known amount of HM3HP was dissolved into buffered solution. […] Samples were incubated at −20° C., 30° C., or 70° C. overnight. NMR analysis was used to measure the amount of HM3HP that was dehydrated to HMA. […] The pH of the solution had more effect on conversion to HMA than did changes in temperature.

O=C(O)C(CO)CO [alpha-hydroxymethyl 3-hydroxypropionic acid]
Tolerated concentration [1]: at least 60 g/L | Tolerated concentration [2]: at least 60 g/L | Tolerated concentration [3]: at least 60 g/L | Relative HMA levels ([4]; pH 3, 30 C.): 0.00 | Relative HMA levels ([4]; pH 3, 70 C.): 0.00 | Relative HMA levels ([4]; pH 3, −20 C.): 0.00 | Relative HMA levels ([4]; pH 7, 30 C.): 0.13 | Relative HMA levels ([4]; pH 7, 70 C.): 0.18 | Relative HMA levels ([4]; pH 7, −20 C.): 0.13 | Relative HMA levels ([4]; pH 10, 30 C.): 1.18 | Relative HMA levels ([4]; pH 10, 70 C.): 1.00 | Relative HMA levels ([4]; pH 10, −20 C.): 0.81
